Data from paper PMC11939361, “diAcCA, a Pro-Drug for Carnosic Acid That Activates the Nrf2 Transcriptional Pathway, Shows Efficacy in the 5xFAD Transgenic Mouse Model of Alzheimer’s Disease” (Antioxidants, 2025).
Entries after “also recorded” stand apart in the source; their conditions may differ.

What was measured:
5xFAD mice [1] = experiment: Contextual and cued conditioned fear test; type: in vivo, mouse; settings: diAcCA PO for 3 months
Protocol: (§1) diAcCA or control vehicle was administered three times per week for 3 months to 5xFAD Tg or WT littermate control mice starting at approximately 5 months of age by oral gavage (designated here as “per os” or PO). Three different doses were used (10 mg/kg, 20 mg/kg, or 50 mg/kg). diAcCA was dissolved in olive oil vehicle, a non-polar organic solvent. For vehicle control, we administered olive oil alone. A total of 45 animals were used in this study, with 7–8 animals in each group.
Contextual and cued learning processes in mice rely on the hippocampus and amygdala, respectively. Fear conditioning is used to evaluate both of these processes. During the conditioning period, mice are trained to associate a context (distinctive environment) and a conditioned stimulus (CS, neutral stimulus consisting of a tone and light) with an unpleasant foot shock to which the mice learn to respond by freezing their movement. Here, we evaluated hippocampal function using the contextual and cued conditioned fear test. […]
On day 1, the mice were acclimatized to the chambers in a 5 min session with no shock. […] On day 3, a 5 min trial took place in the original training chamber (context test) and contextual conditioning was evaluated by observing freezing behavior. […]

[2] = mouse, in vivo
Protocol: We tested both CA and diAcCA compounds by oral gavage/PO at 10 mg/kg. Analysis was performed by LC-MS in the Scripps Florida Drug Development Core (Jupiter, FL, USA). The compounds were formulated in olive oil. CA went into the oil with minimal stirring, but diAcCA required longer stirring. Blood was collected in hematocrit tubes and centrifuged. […] Drug is therefore likely absorbed via enterocyte passage and through chylomicron absorbance, complicating the early time points of the PK curves.
Therefore, we decided to pre-weigh the CA into a vial and, in the vivarium, rapidly dissolve the compound in DMSO and then add Tween80/saline. The compound was dosed within five minutes of being dissolved, and the final concentrations were 5% DMSO and 95% of a 5% Tween80 solution in saline. […] Oral clearance calculations assume 100% bioavailability.
We also determined the stability and bioavailability of diAcCA compared to CA. For this purpose, individual mice were administered CA or diAcCA IV or via oral gavage/PO. For CA, the doses were 3 mg/kg for the IV route and 10 mg/kg for oral gavage/PO, and for diAcCA 10 mg/kg by oral gavage/PO.

5xFAD mice [3] = experiment: Quantitative confocal immunohistochemistry (Q-IHC) of hippocampal sections; type: in vivo, mouse
Protocol: The 5xFAD mice bear five mutations linked to AD. Three of these are in the App695 gene [Swedish (APP K670N/M671L), Florida (I716V), London (V717I)], and two are in the PSEN1 gene [L286V, M146L]. Male 5xFAD breeder mice were obtained from Jackson Laboratories (#034848-JAX, Bar Harbor, ME, USA) and crossed with female 6XC57BL6 mice. Genotyping was performed by PCR. First-generation pups were used for all experiments with 5xFAD transgenic (Tg) and WT littermate control mice.
as §1
For euthanasia, animals were deeply anesthetized with isoflurane and then transcardially perfused with ice-cold phosphate-buffered saline (PBS) followed by 4% paraformaldehyde (PFA) for fixation. Brains were isolated and post-fixed in 4% PFA overnight at 4 °C. The next day, brains were washed and transferred to 30% sucrose at 4 °C until sectioning. Every brain then received a masked code for the following steps, and the code was only broken after all quantifications were completed.
Sagittal sections (40 μm-thick) were prepared using a vibratome (Leica VT1200S) and incubated in blocking buffer (5% goat serum, 0.5% Triton X-100 in PBS) for 1 h at room temperature to prevent non-specific binding. Following blocking, floating sections were incubated in their respective primary antibody solutions on a shaker overnight at 4 °C. Antibodies against the following proteins were used in this study: NeuN (D4G4O, 1:500, rabbit mAb #24307, Cell Signaling Technology, Danvers, MA, USA), Synapsin I (D12G5, 1:500, rabbit mAb #5297, Cell Signaling Technology), phosphor (Ser202, Thr205)-tau (AT8, 1:500, mAb #MN1020, ThermoFisher Scientific, Waltham, MA, USA), glial fibrillary acidic protein (GFAP) (GA5, 1:500, MAB360, Millipore Sigma, Carlsbad, CA, USA), ionized calcium binding adaptor molecule 1 (Iba1) (EPR16589, 1:1000, #ab178847, Abcam, Waltham, MA, USA), human nuclear antigen (HuNu) (1:500, mouse mAb #191181, Abcam), and caspase-1 (1:50, rabbit pAb #AB1871, Sigma Aldrich, St. Louis, MO, USA). For Aβ staining, floating sections were pre-treated with 90% formic acid (28905, Thermo Scientific) for 1 min at room temperature. They were then rinsed and blocked, following which they were incubated in anti-β-amyloid 17–24 antibody (4G8, 1:1000, #800708, BioLegend, San Diego, CA, USA) on a shaker overnight at 4 °C.
The next day, immunostaining was performed on brain sections after 3 washes in PBS and incubation in the appropriate secondary antibody solution on a shaker for 2 h at room temperature. Secondary antibodies included Alexa 488 (A11008, 1:500, goat anti-rabbit, Life Technologies, Carlsbad, CA, USA) and Alexa 555 (A21424, 1:500, goat anti-mouse, Life Technologies). The sections were again washed with PBS 3 times, mounted on Superfrost plus slides (12-550-15, Fisher Scientific, Waltham, MA, USA) and dried at room temperature. The slides were then coated with Vectashield plus antifade mounting medium, stained with nuclear dye DAPI (H-2000, Vector Laboratories, San Francisco, CA, USA), and a coverslip (12541057, Fisher Scientific) was applied. For each brain, 3–6 images were acquired for each individual marker using a confocal fluorescence microscope (Nikon Eclipse Ti2) (Figure 1, Figure 2 and Figure 3, Supplementary Figure S1). Post image processing, quantification was performed using Fiji ImageJ (1.54f). For the Iba1-stained slides, a mask was made of cells co-labeled for HuNu and Iba1, and then caspase 1 staining was measured. […]

[4] = 5xFAD hippocampus, 10, 20 or 50 mg/kg PO three times a week for 3 months vs vehicle

SMILES: CC(=O)Oc1c(C(C)C)cc2c(c1OC(C)=O)[C@@]1(C(=O)O)CCCC(C)(C)[C@@H]1CC2 [diAcCA]
- context test of conditioned fear, freezing behavior (5xFAD mice [1]): showed freezing behavior similar to WT mice
- half-life (t1/2) [2]: over 12 h
- Cmax greater than after CA itself ([2]; po): ~30%
- Cmax of CA in plasma ([2]; po, 10 mg/kg): 5.75
- Tmax ([2]; po, 10 mg/kg): 1.67 h
- average half-life ([2]; po, 10 mg/kg): 12.27 h
- mean Cmax of CA ([2]; po, 10 mg/kg): 5.75 µM
- t1/2 ([2]; po, 10 mg/kg): 12.27 h
- time to peak plasma levels of CA after administration of diAcCA ([2]; po, 10 mg/kg): ~ 15 min
- GFAP MFI, astrocytes (5xFAD mice [3]; [4]): significantly improved; also recorded: reduced GFAP MFI
- Iba1 integrated density (ID), microglial density (5xFAD mice [3]; [4]): significantly improved; also recorded: improved IBA ID
- NeuN mean fluorescence intensity (MFI), neuronal density (5xFAD mice [3]; [4]): significantly improved; also recorded: restored NeuN MFI (representing neuronal number) to near normal levels
- Synapsin I MFI, presynaptic density (5xFAD mice [3]; [4]): significantly improved; also recorded: restored Synapsin I MFI (located in the presynaptic terminal of the synapse) to near normal levels
- percent area of Aβ accumulation (4G8) (5xFAD mice [3]; [4]): significantly reduced the area of Aβ accumulation; also recorded: significantly reduced the area of Aβ aggregates
- percentage area of pTau aggregates (AT8) (5xFAD mice [3]; 5xFAD hippocampus, each treatment dose (10, 20, 50 mg/kg PO, 3 months) vs vehicle): remarkable decrease in the area of pTau aggregates; also recorded: dramatically reduced the area of pTau aggregates
